The values below come from patent publication US9115093B2, “Substituted bicyclic dihydropyrimidinones and their use as inhibitors of neutrophil elastase activity” (Boehringer Ingelheim International GmbH, priority 2013, dated 2015).

The assay concerns the target T1, neutrophil elastase (Homo sapiens, UniProt P08246).
T1 sequence (P08246 30-247 limits assumed): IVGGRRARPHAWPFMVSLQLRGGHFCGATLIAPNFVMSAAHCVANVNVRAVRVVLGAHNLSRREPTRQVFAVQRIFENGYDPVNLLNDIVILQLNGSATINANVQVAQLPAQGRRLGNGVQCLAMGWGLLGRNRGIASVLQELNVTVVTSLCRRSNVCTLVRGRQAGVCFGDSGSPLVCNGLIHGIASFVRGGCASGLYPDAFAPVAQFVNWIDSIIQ
Nature of the assay: Human Neutrophil Elastase Assay. Format: biochemical. On the set-up: purchased Calbiochem 324681. The settings on record: substrate MeOSuc-Ala-Ala-Pro-Val-AMC, pH 7.5, room temperature. In outline: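 Readout: AMC fluorescence (ex 380, em 460 nm) after 60 min room-temperature reaction with 250 nM MeOSuc-AAPV-AMC, following 15 min compound–enzyme preincubation. Buffer: Tris/NaCl pH 7.5, 0.01% BSA.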

pIC50: −log10 of the molar value.

As a reminder, the pIC50 is −log10 of the IC50, conventionally taken in molar units. The low end stands for a high IC50, the high end for a low IC50. Turning to `N#Cc1ccc(C2C3=C(CCCC3=O)N(c3cccc(C(F)(F)F)c3)C(=O)N2C(=O)NCC2CCC(=O)N2)cc1` (stereo not drawn) [Example 39.17], the pIC50 is above 9.00.
Compound `CC(C)(O)CNC(=O)N1C(=O)N(c2ccnc(C(F)(F)F)c2)C2=C(C(=O)CCC2)C1c1ccc(C#N)cc1` (stereo not drawn) [Example 76.4] had a negative logarithm of the IC50 (pIC50) of 8.26.
The same measure for `N#CCNC(=O)N1C(=O)N(c2cccc(C(F)(F)F)c2)C2=C(C(=O)CCC2)C1c1ccc(C#N)cc1` (stereo not drawn) [Example 70.2]: above 9.00.
`CS(=O)(=O)c1cc(C#N)ccc1[C@@H]1C2=C(CCCC2=O)N(c2cccc(C(F)(F)F)c2)C(=O)N1C(=O)NC1COC1` [Example 75.5] showed a negative-log IC50 (pIC50) above 9.00.
Turning to `N#Cc1ccc(C2C3=C(CCCC3=O)N(c3cccc(C(F)(F)F)c3)C(=O)N2C(=O)NCC2(O)CC2)cc1` (stereo not drawn) [Example 70.7], the pIC50 is 8.85.
Take `N#Cc1ccc(C2C3=C(CCCC3=O)N(c3cccc(C(F)(F)F)c3)C(=O)N2CC(=O)N2CCn3nccc3C2)cc1` (stereo not drawn) [Example 36.51]: the pIC50 was 8.77.
With `Cc1cc(C#N)ccc1C1C2=C(CCCC2=O)N(c2cccc(C(F)(F)F)c2)C(=O)N1S(C)(=O)=O` (stereo not drawn) [Example 66, 3-Methyl-4-(3-(methylsulfonyl)-2,5-dioxo-1-(3-(trifluoromethyl)phenyl)-1,2,3,4,5,6,7,8-octahydroquinazolin-4-yl)benzonitrile], the pIC50 was 8.70.
With `COC(=O)c1ccc(CN2C(=O)N(c3cccc(C(F)(F)F)c3)C3=C(C(=O)CCC3)C2c2ccc(C#N)cc2)o1` (stereo not drawn) [Example 28, Methyl 5-((4-(4-Cyanophenyl)-2,5-dioxo-1-(3-(trifluoromethyl)phenyl)-1,2,5,6,7,8-hexahydroquinazolin-3(4H)-yl)methyl)furan-2-carboxylate], the pIC50 is 7.54.
In turn, `N#Cc1ccc(C2C3=C(CCCC3=O)N(c3cccc(C(F)(F)F)c3)C(=O)N2CC(=O)NCC2CCCOC2)cc1` (stereo not drawn) [Example 36.42] had a negative logarithm of the IC50 (pIC50) of 8.00. This pIC50 is 0.46 log units higher than that of the compound before.
With `CCNC(=O)N1C(=O)N(c2cccc(C(F)F)c2)C2=C(C(=O)CCC2)C1c1ccc(C#N)cc1S(C)(=O)=O` (stereo not drawn) [Example 51, 4-(4-Cyano-2-(methylsulfonyl)phenyl)-1-(3-(difluoromethyl)phenyl)-N-ethyl-2,5-dioxo-1,2,5,6,7,8-hexahydroquinazoline-3(4H)-carboxamide], the pIC50 was above 9.00.
In turn, `N#Cc1ccc(C2C3=C(CCCC3=O)N(c3cccc(C(F)(F)F)c3)C(=O)N2CC(=O)N2CC[S+]([O-])CC2)cc1` (stereo not drawn) [Example 36.45] had a pIC50 of 8.68.
For `CN(CCN1CCOCC1)C(=O)CN1C(=O)N(c2cccc(C(F)(F)F)c2)C2=C(C(=O)CCC2)C1c1ccc(C#N)cc1` (stereo not drawn) [Example 36.68], the pIC50 is 8.06.
For the compound `COC(=O)C1CC(=O)C2=C(C1)N(c1cccc(C(F)(F)F)c1)C(=O)NC2c1ccc(C#N)cc1` (stereo not drawn) [Example 11, Methyl 4-(4-Cyanophenyl)-2,5-dioxo-1-(3-(trifluoromethyl)phenyl)-1,2,3,4,5,6,7,8-octahydroquinazoline-7-carboxylate], the negative logarithm of the IC50 (pIC50) is 7.40.
Compound `Cc1nc2c(o1)CN(C(=O)CN1C(=O)N(c3cccc(C(F)(F)F)c3)C3=C(C(=O)CCC3)C1c1ccc(C#N)cc1)CC2` (stereo not drawn) [Example 36.65] gave a pIC50 of 7.79.
The same measure for `Cn1cc(NC(=O)CN2C(=O)N(c3cccc(C(F)(F)F)c3)C3=C(C(=O)CCC3)C2c2ccc(C#N)cc2)ccc1=O` (stereo not drawn) [Example 36.53]: 7.97; for `N#Cc1ccc(C2C3=C(CCCC3=O)N(c3cccc(C(F)(F)F)c3)C(=O)N2CC(=O)N2CCN3CCCC3C2)cc1` (stereo not drawn) [Example 36.56]: 8.10.
As to `N#Cc1ccc(C2C3=C(CCCC3=O)N(c3cccc(C(F)(F)F)c3)C(=O)N2CC(=O)NCC2CC2)cc1` (stereo not drawn) [Example 36.3], the pIC50 is 7.68. This pIC50 is 0.42 log units lower than that of the compound before.
`CNC(=O)N1C(=O)N(c2cccc(C(F)F)c2)C2=C(C(=O)CCC2)C1c1ccc(C#N)cc1S(C)(=O)=O` (stereo not drawn) [Example 50, 4-(4-Cyano-2-(methylsulfonyl)phenyl)-1-(3-(difluoromethyl)phenyl)-N-methyl-2,5-dioxo-1,2,5,6,7,8-hexahydroquinazoline-3(4H)-carboxamide]: the pIC50 is above 9.00.
As for `N#Cc1ccc(C2C3=C(CCCC3=O)N(c3cccc(C(F)(F)F)c3)C(=O)N2CC(=O)N2CCc3[nH]c(=O)ccc3C2)cc1` (stereo not drawn) [Example 36.71], the pIC50 is 8.66.
`N#Cc1ccc(C2C3=C(CCCC3=O)N(c3cccc(C(F)(F)F)c3)C(=O)N2CC(=O)NCc2ccc(=O)[nH]c2)cc1` (stereo not drawn) [Example 36.52] showed a pIC50 of 7.93.
In the case of `CS(=O)(=O)c1cc(C#N)ccc1C1C2=C(CCCC2=O)N(c2cccc(C(F)(F)F)c2)C(=O)N1CCC1CCOCC1` (stereo not drawn) [Example 58.6] it was above 9.00.
For the compound `Cc1cc(C#N)ccc1C1C2=C(CCCC2=O)N(c2cccc(C(F)(F)F)c2)C(=O)N1C` (stereo not drawn) [Example 63, 3-Methyl-4-(3-methyl-2,5-dioxo-1-(3-(trifluoromethyl)phenyl)-1,2,3,4,5,6,7,8-octahydroquinazolin-4-yl)benzonitrile], the pIC50 was 8.10.
Consider `N#Cc1ccc(C2C3=C(CCCC3=O)N(c3cccc(C(F)(F)F)c3)C(=O)N2CC(=O)N2CCC3(CC3)C2)cc1` (stereo not drawn) [Example 36.16], for which the pIC50 was 8.44.
The same measure for `N#Cc1ccc(C2NC(=O)N(c3cccc(C(F)(F)F)c3)C3=C2C(=O)CC(C(N)=O)C3)cc1` (stereo not drawn) [Example 12, 4-(4-Cyanophenyl)-2,5-dioxo-1-(3-(trifluoromethyl)phenyl)-1,2,3,4,5,6,7,8-octahydroquinazoline-7-carboxamide]: 7.36; for `Cn1ccc(CN2C(=O)N(c3cccc(C(F)(F)F)c3)C3=C(C(=O)CCC3)C2c2ccc(C#N)cc2)n1` (stereo not drawn) [Example 24.3]: 7.95; for `N#Cc1ccc(C2NC(=O)N(c3cccc(C(F)F)c3)C3=C2C(=O)CCC3)cc1` (stereo not drawn) [Example 17, 4-(1-(3-(Difluoromethyl)phenyl)-2,5-dioxo-1,2,3,4,5,6,7,8-octahydroquinazolin-4-yl)-benzonitrile]: 7.63.
For the compound `CS(=O)(=O)c1cc(C#N)ccc1[C@@H]1C2=C(CCCC2=O)N(c2cccc(C(F)(F)F)c2)C(=O)N1C(=O)NC1CC(O)C1` (stereo partly drawn) [Example 75.11], the pIC50 is above 9.00.
`Cn1cc(CNC(=O)CN2C(=O)N(c3cccc(C(F)(F)F)c3)C3=C(C(=O)CCC3)C2c2ccc(C#N)cc2)cn1` (stereo not drawn) [Example 36.31] had a pIC50 of 8.11.
Compound `COCCN(C)C(=O)CN1C(=O)N(c2cccc(C(F)(F)F)c2)C2=C(C(=O)CCC2)C1c1ccc(C#N)cc1` (stereo not drawn) [Example 36.12] gave a pIC50 of 8.18.
Turning to `CN1CCN(C(=O)CN2C(=O)N(c3cccc(C(F)(F)F)c3)C3=C(C(=O)CCC3)C2c2ccc(C#N)cc2)CC1=O` (stereo not drawn) [Example 36.37], the negative-log IC50 (pIC50) was 8.38.
As for `N#Cc1ccc(C2C3=C(CCCC3=O)N(c3cccc(C(F)(F)F)c3)C(=O)N2CC(=O)NCCN2CCOCC2)cc1` (stereo not drawn) [Example 36.63], the pIC50 is 7.86. This pIC50 lies 0.52 log units lower than the previous one.
For the compound `Cn1nccc1CN1C(=O)N(c2cccc(C(F)(F)F)c2)C2=C(C(=O)CCC2)C1c1ccc(C#N)cc1` (stereo not drawn) [Example 24.1], the negative-log IC50 (pIC50) was 8.18.
With `CN1CCC(NC(=O)N2C(=O)N(c3cccc(C(F)(F)F)c3)C3=C(C(=O)CCC3)C2c2ccc(C#N)cc2)C1=O` (stereo not drawn) [Example 39.15], the pIC50 is above 9.00.
On to `COC1CCN(C(=O)N2C(=O)N(c3cccc(C(F)(F)F)c3)C3=C(C(=O)CCC3)C2c2ccc(C#N)cc2)C1` (stereo not drawn) [Example 39.10], for which the pIC50 is 7.26.
The compound `N#Cc1ccc(C2C3=C(CCCC3=O)N(c3cccc(C(F)(F)F)c3)C(=O)N2C(=O)N2CCOCC2)cc1` (stereo not drawn) [Example 39.7] showed a pIC50 of 7.20.
Compound `COC(=O)CCCS(=O)(=O)N1C(=O)N(c2cccc(C(F)(F)F)c2)C2=C(C(=O)CCC2)C1c1ccc(C#N)cc1` (stereo not drawn) [Example 44.10, methyl 4-(4-(4-cyanophenyl)-2,5-dioxo-1-(3-(trifluoromethyl)phenyl)-1,2,5,6,7,8-hexahydroquinazolin-3(4H)-ylsulfonyl)butanoate] gave a pIC50 of 8.28.
On to `CS(=O)(=O)CCNC(=O)N1C(=O)N(c2cccc(C(F)(F)F)c2)C2=C(C(=O)CCC2)C1c1ccc(C#N)cc1S(C)(=O)=O` (stereo not drawn) [Example 47.4], for which the pIC50 was above 9.00.
In the case of `CCCNC(=O)N1C(=O)N(c2cccc(C(F)(F)F)c2)C2=C(C(=O)CCC2)C1c1ccc(C#N)cc1` (stereo not drawn) [Example 39.2] it was 9.00; in that of `CCNC(=O)N1C(=O)N(c2cccc(C(F)(F)F)c2)C2=C(C(=O)CCC2)C1c1ccc(C#N)cc1` (stereo not drawn) [Example 70.1], above 9.00.
Consider `CC(C#N)NC(=O)N1C(=O)N(c2cccc(C(F)(F)F)c2)C2=C(C(=O)CCC2)[C@H]1c1ccc(C#N)cc1S(C)(=O)=O` (stereo partly drawn) [Example 75.4], for which the negative-log IC50 (pIC50) was above 9.00.
The same measure for `N#Cc1ccc(C2C3=C(CCCC3=O)N(c3cccc(C(F)(F)F)c3)C(=O)N2S(=O)(=O)c2ccco2)cc1` (stereo not drawn) [Example 44.4]: 7.81; for `CN(CC1CC1)C(=O)CN1C(=O)N(c2cccc(C(F)(F)F)c2)C2=C(C(=O)CCC2)C1c1ccc(C#N)cc1` (stereo not drawn) [Example 36.7]: 8.47; for `COC(=O)c1cc(S(=O)(=O)N2C(=O)N(c3cccc(C(F)(F)F)c3)C3=C(C(=O)CCC3)C2c2ccc(C#N)cc2)cs1` (stereo not drawn) [Example 44, Methyl 4-(4-(4-Cyanophenylcyanophenyl)-2,5-dioxo-1-(3-(trifluoromethyl)phenyl)-1,2,5,6,7,8-hexahydroquinazolin-3(4H)-ylsulfonyl)thiophene-2-carboxylate]: 7.66.
For the compound `N#Cc1ccc(C2C3=C(CCCC3=O)N(c3cccc(C(F)(F)F)c3)C(=O)N2S(=O)(=O)Cc2ccccc2)cc1` (stereo not drawn) [Example 44.8], the negative logarithm of the IC50 (pIC50) is 8.05.
In turn, `COC1CCN(C(=O)CN2C(=O)N(c3cccc(C(F)(F)F)c3)C3=C(C(=O)CCC3)C2c2ccc(C#N)cc2)CC1` (stereo not drawn) [Example 36.40] had a pIC50 of 8.51.
